Tested on: Metabolism protein genes
Assay: DNA chip mRNA expression in yeast, metabolism protein genes (Table 7)
Assay type: cell-based, Saccharomyces cerevisiae S288C
Protocol: Yeast (Saccharomyces cerevisiae S288C (α SUC2mal mel gap2 CUP1)) were incubated at 25° C. on YPD medium (yeast extract 1%, polypepton 2%, glucose 2%). One of toxic chemical substances was added to the cells at logarithmic growth phase, and the cells were further incubated for two hours. Cells were cultured without any chemical substance in the same condition, and were used as control. Concentrations of the chemical substances were defined to inhibit the growth of the yeast but not lead to death.
After completion of the incubation, the culture was centrifuged to collect the cells. To the cells, sodium acetate buffer (50 mM sodium acetate, 10 mM EDTA, 1% SDS) was added, and the mixture was shaken at 65° C. for five minutes, followed by returning to room temperature, and obtaining the supernatant, of which the procedures were repeated two times. To the supernatant, ½ amount of a solution of phenol/chloroform was added, and the mixture was centrifuged to give a supernatant, which was added with an equal amount of chloroform, and the mixture was centrifuged to give a supernatant. To the supernatant, an equal amount of isopropanol containing 0.3 M sodium acetate was added, and the mixture was allowed to stand at room temperature for 30 minutes, after which the mixture was centrifuged to give a sediment of the whole RNAs. Seventy % ethanol was added to the sediment, and the mixture was again centrifuged to give a sediment, which was then dried and dissolved in water. mRNA was isolated from the whole RNAs as followings. In view of the fact that a poly A chain is attached to the 3′ terminus of mRNA, a polynucleotide having a poly T structure which was immobilized on the surface of latex beads was used to trap the mRNA, and then the mRNA was washed and eluted with spine column (Oligotex-dT30<Super>mRNA Purification Kit, Takara). Reverse transcription of the mRNA was conducted with a reverse transcriptase (Super Script II Reverse Transcriptase; catalogue No. 18064-014, GibcoBRL) using fluorescence-labeled nucleotides to give cDNAs that were introduced with Cy3-dUTP or Cy5-dUTP during the reverse transcription.
The labeled cDNAs were dissolved in TE buffer (10mM Tris-HCl/1 mM EDTA, pH8.0), and the solution was dropped on the DNA chip containing the whole genes of yeast (DNA Chip Research Inc. Japan) so that the cDNAs were hybridized on the DNA chip at 65° C. for over 12 hours. The fluoresces intensity of the DNA chip was read with a scanner, and the ratio relative to the fluorescence intensity resulting from the absence of chemical substance was estimated as the following, which is shown in Tables 1 to 9: […]

CCCCCCCCCCCCc1ccc(S(=O)(=O)[O-])cc1.[Na+] [(17), sodium dodecylbenzosulfonate]
The level of expressed mRNA in the presence of chemical substance/The level of expressed mRNA in the absence of chemical substance (yeast gene YJR155W): 1.3
The level of expressed mRNA in the presence of chemical substance/The level of expressed mRNA in the absence of chemical substance (yeast gene YKL035W): 1.0
level of expressed mRNA in the presence/in the absence of chemical substance (yeast gene YKL060C): 1.2
The level of expressed mRNA in the presence of chemical substance/The level of expressed mRNA in the absence of chemical substance (yeast gene YKL091C): 1.4
The level of expressed mRNA in the presence of chemical substance/The level of expressed mRNA in the absence of chemical substance (yeast gene YKL104C): 1.0
level of expressed mRNA in the presence/in the absence of chemical substance (yeast gene YKL148C): 0.8
The level of expressed mRNA in the presence of chemical substance/The level of expressed mRNA in the absence of chemical substance (yeast gene YKL152C): 1.1
level of expressed mRNA in the presence/in the absence of chemical substance (yeast gene YKL157W): 1.2
The level of expressed mRNA in the presence of chemical substance/The level of expressed mRNA in the absence of chemical substance (yeast gene YKL213C): 1.4
The level of expressed mRNA in the presence of chemical substance/The level of expressed mRNA in the absence of chemical substance (yeast gene YKL215C): 0.8
level of expressed mRNA in the presence/in the absence of chemical substance (yeast gene YKR034W): 0.8
The level of expressed mRNA in the presence of chemical substance/The level of expressed mRNA in the absence of chemical substance (yeast gene YLL058W): 1.4
level of expressed mRNA in the presence/in the absence of chemical substance (yeast gene YLR006C): 1.6
level of expressed mRNA in the presence/in the absence of chemical substance (yeast gene YLR044C): 0.9
level of expressed mRNA in the presence/in the absence of chemical substance (yeast gene YLR056W): 1.1
level of expressed mRNA in the presence/in the absence of chemical substance (yeast gene YLR058C): 0.8
level of expressed mRNA in the presence/in the absence of chemical substance (yeast gene YLR081W): 0.7
level of expressed mRNA in the presence/in the absence of chemical substance (yeast gene YLR089C): 1.2
The level of expressed mRNA in the presence of chemical substance/The level of expressed mRNA in the absence of chemical substance (yeast gene YLR180W): 0.8
The level of expressed mRNA in the presence of chemical substance/The level of expressed mRNA in the absence of chemical substance (yeast gene YLR273C): 1.0
level of expressed mRNA in the presence/in the absence of chemical substance (yeast gene YLR284C): 2.9
The level of expressed mRNA in the presence of chemical substance/The level of expressed mRNA in the absence of chemical substance (yeast gene YLR299W): 1.3
The level of expressed mRNA in the presence of chemical substance/The level of expressed mRNA in the absence of chemical substance (yeast gene YLR300W): 0.7
level of expressed mRNA in the presence/in the absence of chemical substance (yeast gene YLR304C): 0.5
The level of expressed mRNA in the presence of chemical substance/The level of expressed mRNA in the absence of chemical substance (yeast gene YLR307W): 1.1
The level of expressed mRNA in the presence of chemical substance/The level of expressed mRNA in the absence of chemical substance (yeast gene YLR348C): 1.1
level of expressed mRNA in the presence/in the absence of chemical substance (yeast gene YLR354C): 1.0
level of expressed mRNA in the presence/in the absence of chemical substance (yeast gene YLR372W): 0.5
level of expressed mRNA in the presence/in the absence of chemical substance (yeast gene YML022W): 0.5
The level of expressed mRNA in the presence of chemical substance/The level of expressed mRNA in the absence of chemical substance (yeast gene YML054C): 1.1
The level of expressed mRNA in the presence of chemical substance/The level of expressed mRNA in the absence of chemical substance (yeast gene YML070W): 1.2
The level of expressed mRNA in the presence of chemical substance/The level of expressed mRNA in the absence of chemical substance (yeast gene YML100W): 1.0
The level of expressed mRNA in the presence of chemical substance/The level of expressed mRNA in the absence of chemical substance (yeast gene YMR008C): 3.0
level of expressed mRNA in the presence/in the absence of chemical substance (yeast gene YMR011W): 1.3
level of expressed mRNA in the presence/in the absence of chemical substance (yeast gene YMR015C): 1.0
The level of expressed mRNA in the presence of chemical substance/The level of expressed mRNA in the absence of chemical substance (yeast gene YMR020W): 2.3
level of expressed mRNA in the presence/in the absence of chemical substance (yeast gene YMR083W): 0.9
The level of expressed mRNA in the presence of chemical substance/The level of expressed mRNA in the absence of chemical substance (yeast gene YMR105C): 1.6
The level of expressed mRNA in the presence of chemical substance/The level of expressed mRNA in the absence of chemical substance (yeast gene YMR189W): 1.0
level of expressed mRNA in the presence/in the absence of chemical substance (yeast gene YMR205C): 0.6
level of expressed mRNA in the presence/in the absence of chemical substance (yeast gene YMR261C): 0.7
The level of expressed mRNA in the presence of chemical substance/The level of expressed mRNA in the absence of chemical substance (yeast gene YMR271C): 1.3
The level of expressed mRNA in the presence of chemical substance/The level of expressed mRNA in the absence of chemical substance (yeast gene YMR296C): 0.8
level of expressed mRNA in the presence/in the absence of chemical substance (yeast gene YMR323W): 1.1
The level of expressed mRNA in the presence of chemical substance/The level of expressed mRNA in the absence of chemical substance (yeast gene YNL012W): 1.3
level of expressed mRNA in the presence/in the absence of chemical substance (yeast gene YNL025C): 0.7
The level of expressed mRNA in the presence of chemical substance/The level of expressed mRNA in the absence of chemical substance (yeast gene YNL045W): 1.1
The level of expressed mRNA in the presence of chemical substance/The level of expressed mRNA in the absence of chemical substance (yeast gene YNL104C): 0.9
The level of expressed mRNA in the presence of chemical substance/The level of expressed mRNA in the absence of chemical substance (yeast gene YNL106C): 1.1
The level of expressed mRNA in the presence of chemical substance/The level of expressed mRNA in the absence of chemical substance (yeast gene YNL169C): 1.1
level of expressed mRNA in the presence/in the absence of chemical substance (yeast gene YNL192W): 2.3
The level of expressed mRNA in the presence of chemical substance/The level of expressed mRNA in the absence of chemical substance (yeast gene YNL231C): 3.1
The level of expressed mRNA in the presence of chemical substance/The level of expressed mRNA in the absence of chemical substance (yeast gene YNL322C): 0.9
The level of expressed mRNA in the presence of chemical substance/The level of expressed mRNA in the absence of chemical substance (yeast gene YNL331C): 1.7
The level of expressed mRNA in the presence of chemical substance/The level of expressed mRNA in the absence of chemical substance (yeast gene YNL332W): 1.0
The level of expressed mRNA in the presence of chemical substance/The level of expressed mRNA in the absence of chemical substance (yeast gene YNR019W): 2.4
The level of expressed mRNA in the presence of chemical substance/The level of expressed mRNA in the absence of chemical substance (yeast gene YNR033W): 0.9
The level of expressed mRNA in the presence of chemical substance/The level of expressed mRNA in the absence of chemical substance (yeast gene YNR059W): 2.6
The level of expressed mRNA in the presence of chemical substance/The level of expressed mRNA in the absence of chemical substance (yeast gene YOL058W): 1.2
level of expressed mRNA in the presence/in the absence of chemical substance (yeast gene YOL086C): 1.1
level of expressed mRNA in the presence/in the absence of chemical substance (yeast gene YOL108C): 1.5
level of expressed mRNA in the presence/in the absence of chemical substance (yeast gene YOL116W): 1.1
The level of expressed mRNA in the presence of chemical substance/The level of expressed mRNA in the absence of chemical substance (yeast gene YOL126C): 1.6
The level of expressed mRNA in the presence of chemical substance/The level of expressed mRNA in the absence of chemical substance (yeast gene YOL153C): 1.1
level of expressed mRNA in the presence/in the absence of chemical substance (yeast gene YOL156W): 0.9
The level of expressed mRNA in the presence of chemical substance/The level of expressed mRNA in the absence of chemical substance (yeast gene YOL165C): 1.6
level of expressed mRNA in the presence/in the absence of chemical substance (yeast gene YOR002W): 0.9
level of expressed mRNA in the presence/in the absence of chemical substance (yeast gene YOR085W): 0.9
The level of expressed mRNA in the presence of chemical substance/The level of expressed mRNA in the absence of chemical substance (yeast gene YOR099W): 1.2
level of expressed mRNA in the presence/in the absence of chemical substance (yeast gene YOR103C): 1.1
level of expressed mRNA in the presence/in the absence of chemical substance (yeast gene YOR108W): 1.1
level of expressed mRNA in the presence/in the absence of chemical substance (yeast gene YOR128C): 1.2
The level of expressed mRNA in the presence of chemical substance/The level of expressed mRNA in the absence of chemical substance (yeast gene YOR130C): 1.5
level of expressed mRNA in the presence/in the absence of chemical substance (yeast gene YOR142W): 0.9
level of expressed mRNA in the presence/in the absence of chemical substance (yeast gene YOR176W): 1.2
level of expressed mRNA in the presence/in the absence of chemical substance (yeast gene YOR178C): 1.0
level of expressed mRNA in the presence/in the absence of chemical substance (yeast gene YOR251C): 0.9
The level of expressed mRNA in the presence of chemical substance/The level of expressed mRNA in the absence of chemical substance (yeast gene YOR336W): 1.0
The level of expressed mRNA in the presence of chemical substance/The level of expressed mRNA in the absence of chemical substance (yeast gene YOR347C): 1.7
level of expressed mRNA in the presence/in the absence of chemical substance (yeast gene YOR348C): 0.9
The level of expressed mRNA in the presence of chemical substance/The level of expressed mRNA in the absence of chemical substance (yeast gene YPL017C): 1.3
level of expressed mRNA in the presence/in the absence of chemical substance (yeast gene YPL028W): 1.4
level of expressed mRNA in the presence/in the absence of chemical substance (yeast gene YPL057C): 2.2
level of expressed mRNA in the presence/in the absence of chemical substance (yeast gene YPL135W): 1.5
level of expressed mRNA in the presence/in the absence of chemical substance (yeast gene YPL148C): 1.0
The level of expressed mRNA in the presence of chemical substance/The level of expressed mRNA in the absence of chemical substance (yeast gene YPR026W): 0.9
level of expressed mRNA in the presence/in the absence of chemical substance (yeast gene YPR113W): 1.2
level of expressed mRNA in the presence/in the absence of chemical substance (yeast gene YPR165W): 2.3
The level of expressed mRNA in the presence of chemical substance/The level of expressed mRNA in the absence of chemical substance (yeast gene YPR167C): 1.7
level of expressed mRNA in the presence/in the absence of chemical substance (yeast gene YPR183W): 1.2

From patent US8192962B2, “Processes for detecting toxic substances” (Daikin Industries, Ltd., priority 2001, dated 2012)
